This data set in a line: gradient 5% acetonitrile 3 min, to 50% in 2 min, to 85% in 15 min, held 3 min, 100 µL/min. The settings on record: column: Zorbax Extend-C18 2.1 x 50 mm; eluents: water / acetonitrile, 0.1% formic acid. In short, it runs like this: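 Retention times come from adduct peaks that were picked computationally and then checked by hand. The standards, pure and pooled in mixtures of ~100 molecules, were run on a Zorbax Extend-C18 column (2.1 × 50 mm, 1.8 μm) at 100 μL/min with water and acetonitrile, each with 0.1% formic acid. Detection was by quadrupole time-of-flight mass spectrometry in positive and negative ionization mode, with a dead volume of 40 μL and a dwell volume of 900 μL.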
Compound `CC(=O)c1cccc(NC(=O)C2Oc3ccccc3NC2=O)c1` (stereo not drawn) came in with an RP-LC retention time of 702 s.
The figure for `Cc1noc(-c2ccc(OC3CN(C(=O)Cc4ccsc4)C3)cc2)n1` is 826 s; for `Cc1cc(C)n(-c2ccccc2Cl)c(=O)c1C(=O)O` it is 787 s.
Regarding `O=C(NCc1[nH]nc2ccccc12)c1ccc2c(c1)OCO2`, the RP-LC retention time was determined as 704 s.
The value for `O=C(NCCc1ccccc1)C(=O)NCC1COc2ccccc2O1` (stereo not drawn) was 960 s; that for `C=C1C(=O)OC2CC1C(OC(C)=O)C/C(C)=C/CC/C(C)=C\CCC2(C)O` (stereo not drawn) was 917 s; that for `Cc1ccc(-c2ccc(-n3nc(C)c(S(=O)(=O)Nc4ccccc4)c3C)nn2)cc1` was 1060 s.
The value for `CC(C)NC(=O)c1ccc(OCC2CCCN(C(=O)C3CCCO3)C2)cc1` (stereo not drawn) was 688 s; that for `COc1nc2ccccc2nc1N1CCCC(C(=O)Nc2ccc(F)cc2F)C1` (stereo not drawn) was 1170 s.
The value for `COCCNC(=O)C1CCN(c2nc3ccc(-c4ccc(F)cc4)nc3s2)CC1` was 835 s; that for `CC1CCCCN1Cc1nc(-c2ccc(N(C)Cc3ccccc3)nc2)no1` (stereo not drawn) was 912 s; that for `Cc1ccn2c(NC(=O)c3ccccc3F)c(-c3ccccc3)nc2c1` was 653 s.
Take `CCN(Cc1ccccc1)C(=O)CS(=O)Cc1cnn(-c2ccccc2)c1-n1cccc1` (stereo not drawn): the RP-LC retention time came out at 825 s.
The value for `CN1C(=O)C(CC(=O)N2CCCCC2)Sc2ncccc21` (stereo not drawn) was 658 s; that for `COc1ccc(-c2nc3cnccn3c2Nc2cccc(Cl)c2C)cc1OC` was 890 s; that for `Cc1ccc(-c2c(C)noc2C)cc1S(=O)(=O)NCc1ccccc1` was 924 s.
On to `COc1ccc(NC(=O)C2CCCN(c3ncnc4c3nc3n4CCCCC3)C2)c(OC)c1` (stereo not drawn), for which the RP-LC retention time was determined as 777 s.
The figure for `O=C(Cc1ccc(Cl)cc1)N1CCC2(C1)C(=O)Nc1ccccc12` (stereo not drawn) is 758 s; for `Cc1c(Cl)cccc1Nc1c(-c2ccc(N3CCOCC3)cc2)nc2cnccn12` it is 916 s; for `Cc1c(-c2nnc(C(=O)NCCN(C)C)o2)oc2c(C)cccc12` it is 651 s.
Consider `COc1ccc(S(=O)(=O)N2CCCN(c3ccc(=O)n(-c4ccccc4)n3)CC2)cc1`, for which the RP-LC retention time came to 822 s.
As to `Cc1cc(C)cc(C(=O)N2CCCC(C(=O)NCCN3CCOCC3)C2)c1` (stereo not drawn), the RP-LC retention time was 619 s.
On to `COC(=O)c1c(-c2ccccc2)noc1NCc1ccc(C)o1`, for which the RP-LC retention time was found to be 989 s.
`Cc1nnc(-c2cn(CC(=O)Nc3ccc(Cl)cc3)c3ccccc23)o1`: the RP-LC retention time amounted to 856 s.
In turn, `COc1ccc(-c2c(C)noc2NC(C)=O)cc1S(=O)(=O)Nc1ccc(F)c(Cl)c1` showed an RP-LC retention time of 803 s.
The figure for `CC1=C(C(=O)NCCCOC(C)C)C2(CCN(Cc3ccccc3)CC2)OC1=O` is 644 s; for `O=C(NCCCN1CCOCC1)c1ccc(OCc2nnc(C(=O)Nc3ccccc3F)s2)cc1` it is 658 s.
The figure for `CSc1nc2ccc3nc(NC(=O)c4ccc([N+](=O)[O-])o4)sc3c2s1` is 930 s.
As for `CCN1CCN(CCCNC(=O)C2CCCN(c3nc4cccnc4s3)C2)CC1` (stereo not drawn), the RP-LC retention time is 552 s.
In the case of `Cc1ccc(NS(=O)(=O)c2cn(CC(C)C)c3ncccc23)c(C)c1`, the RP-LC retention time was 1050 s.
The figure for `COc1ccc(NC(=O)C2CCc3nc(N4CCOCC4)ncc3C2)cc1F` (stereo not drawn) is 718 s.
The figure for `CCCCC(C)C(=O)N1CCCN(C2=NS(=O)(=O)C(c3ccc(CC)cc3)=C2C)CC1` (stereo not drawn) is 1020 s; for `Cc1cc(N2CCN(C)CC2)nc2ccc(NC(=S)NCC3(c4ccccc4)CCCC3)cc12` it is 636 s.
For `CCCn1c(=O)c(C)nc2cc(-c3noc(Cc4ccc(OC)cc4)n3)ccc21`, the RP-LC retention time stood at 1040 s.
The value for `CCN1CCC(Nc2ccnc3cc(Cl)ccc23)CC1` was 588 s; that for `CCCc1cc(N2CCN(C(=O)c3cccs3)CC2)nc2nncn12` was 601 s.
The value for `CCOc1ccccc1-c1csc(NC(=O)c2sc(COc3cc(C)ccc3C)nc2C)n1` was 1030 s; that for `O=c1c(NCc2ccccc2Cl)nccn1-c1ccc2c(c1)OCO2` was 932 s.
On to `CC(Cc1ccco1)NC(=O)CCCn1c(=O)c2cccn2c2ccc(Br)cc21` (stereo not drawn), for which the RP-LC retention time was determined as 924 s.
`COc1ccc(NC(=O)N2CCC3(C2)C(=O)N(C)c2ccccc23)cc1OC` (stereo not drawn) displayed an RP-LC retention time of 808 s.
The value for `O=C(CN1C(=O)C(C(=O)N2CCCCCC2)Sc2ccccc21)N1CCN(c2ncccn2)CC1` (stereo not drawn) was 784 s; that for `O=C(NCc1ccc2c(c1)OCO2)C(=O)NCC1OCCN1S(=O)(=O)c1ccccc1` (stereo not drawn) was 752 s; that for `Cc1ccc(-c2cc3c(=O)n(Cc4nc(-c5ccccn5)no4)ccn3n2)cc1C` was 909 s.
`O=C(Nc1nnc(SCc2ccccn2)s1)C1CC(=O)N(c2ccc(F)cc2)C1` (stereo not drawn) showed an RP-LC retention time of 617 s.
The figure for `CCOc1ccc(Nc2c(-c3nc(C)no3)cnc3nc(C)ccc23)cc1` is 778 s; for `Cc1ccc(C)c(N2CCN(C(=O)C3CCCN(C(=O)c4[nH]c(C)cc4C)C3)CC2)c1` (stereo not drawn) it is 1010 s.
With `O=C1CCCc2cc(S(=O)(=O)N3CCC(C(=O)N4CCc5ccccc54)CC3)ccc2N1`, the RP-LC retention time amounted to 802 s.
The value for `Cc1ccccc1S(=O)(=O)N1CCC2(CC1)NCCN=C2NCc1cc(F)cc(F)c1` was 730 s.
`Cc1c2ccnc(C(N)=O)c2c(C)c2c1[nH]c1ccccc12` gave an RP-LC retention time of 619 s.
In turn, `O=C(Cc1nnc(-c2ccc3ncccc3c2)o1)NCc1ccccc1Cl` displayed an RP-LC retention time of 711 s.
Turning to `Cc1ccn2c(Nc3ccc4c(c3)OCO4)c(-c3ccc(N(C)C)cc3)nc2c1`, the RP-LC retention time came to 734 s.
`COc1cc(NC(=O)N2c3ccccc3CC2c2nc(C3CC3)no2)cc(OC)c1` (stereo not drawn) yielded an RP-LC retention time of 1030 s.
The figure for `CN(C)C(=O)c1cccc2c1CCN2C(=O)c1ccc(F)cc1` is 719 s.
`Cc1ccccc1CNC(=O)Cn1c(C)cc(-c2nnc(-c3ccccc3)o2)c1C`: the RP-LC retention time is 957 s.
The figure for `Cc1c(C(=O)N2CCN(S(C)(=O)=O)CC2)nnn1-c1nc2c(s1)CCCC2` is 798 s; for `CCc1ccccc1NC(=O)C1CCN(S(=O)(=O)c2c(C)[nH]c(C)c2C(=O)N2CCCC2)CC1` it is 726 s.
Turning to `CCN(CC)CCNC(=O)Cn1c2ccccc2c2cnn(C)c(=O)c21`, the RP-LC retention time turned out to be 599 s.
`COc1ccc(OC)c(NC(=O)N2CCc3c(c(C(=O)N4CCCC4)nn3C)C2)c1` showed an RP-LC retention time of 718 s.
In turn, `Cc1cc(C)n(Cc2nc(-c3ccc(NC(=O)c4ccc(C)s4)cc3)oc2C)n1` returned an RP-LC retention time of 955 s.
`CCc1ccc(S(=O)(=O)N2CCc3c(c(-c4nc(C5CC5)no4)nn3C)C2)cc1` yielded an RP-LC retention time of 1020 s.
The figure for `Cc1ccc(S(=O)(=O)NC(=O)Nc2nccs2)cc1` is 751 s.
The value for `O=C(NC1CC1)C1CCCN(S(=O)(=O)c2c[nH]c(C(=O)N3CCCCCC3)c2)C1` (stereo not drawn) was 702 s.
In turn, `CCC(C)NS(=O)(=O)c1ccccc1-c1nc(-c2ccc(C)cc2)no1` (stereo not drawn) showed an RP-LC retention time of 1270 s.
The figure for `O=C(c1ccc[nH]1)N1CCN(C(=O)c2nnn3c2COC(c2ccc(Cl)cc2)C3)CC1` (stereo not drawn) is 839 s; for `CCS(=O)(=O)N1CC(=O)N(c2ccc(C)cc2)C(C)(C(=O)NC2CCCCCCC2)C1` (stereo not drawn) it is 979 s; for `CC(NC(=O)C(=O)c1c[nH]c2ccccc12)c1ccccc1` (stereo not drawn) it is 924 s.
The value for `O=C(NC1CCCCC1)N1CCN(c2ncccc2-c2nnc(C3CC3)o2)CC1` was 745 s.
The value for `COc1ccc(OC)c(NC(=O)C2CCCN(c3ncnc4c3nc3n4CCCCC3)C2)c1` (stereo not drawn) was 815 s; that for `COc1cc2c(cc1OC)[C@@H](C(=O)N(C)c1ccc(Cl)cc1)[C@@H]1CCCCN1C2=O` was 719 s.
As for `Cc1[nH]nc(-c2c(C)sc(C)c2S(=O)(=O)NC2CCCc3ccccc32)c1C` (stereo not drawn), the RP-LC retention time was 1130 s.
Take `O=C(NCc1ccco1)Nc1cccc(-c2noc(C3CCC3)n2)c1`: the RP-LC retention time was 912 s.
The figure for `O=C(NC1(c2nc(-c3cccnc3)no2)CCCCC1)c1ccoc1` is 802 s; for `Cc1ccc2c(c1)cc(S(=O)(=O)c1ccccc1)c(=O)n2CC(=O)N1CCCCC1` it is 919 s; for `Cc1ccc(-n2nc3c(N4CCCC(C(=O)NCCC5=CCCCC5)C4)nnc(C)c3c2C)cc1` (stereo not drawn) it is 865 s.
The value for `CC(C)NC(=O)c1ccccc1OCC1CCCN(C2CCCC2)C1` (stereo not drawn) was 635 s; that for `O=C(NCc1cccc(Br)c1)C1CCN(c2nnc(-c3ccccc3)o2)CC1` was 885 s.
The value for `COc1ccc2c(c1)c(CN1CCC(C(=O)NCCc3ccco3)CC1)cn2C` was 671 s; that for `Cc1ccc(NC(=O)Nc2cccc(-c3ccc(N4CCOCC4)nn3)c2)cc1` was 704 s.

Source of the values: the METLIN SMRT retention time set (Domingo-Almenara et al. 2019).
